One assay deals with T1, PI3Kδ (Homo sapiens, UniProt O00329).
T1 construct: The protein is full length and co-expressed with untagged PIK3R1; GST; purchased Invitrogen PV5274
T1 sequence (O00329 whole entry): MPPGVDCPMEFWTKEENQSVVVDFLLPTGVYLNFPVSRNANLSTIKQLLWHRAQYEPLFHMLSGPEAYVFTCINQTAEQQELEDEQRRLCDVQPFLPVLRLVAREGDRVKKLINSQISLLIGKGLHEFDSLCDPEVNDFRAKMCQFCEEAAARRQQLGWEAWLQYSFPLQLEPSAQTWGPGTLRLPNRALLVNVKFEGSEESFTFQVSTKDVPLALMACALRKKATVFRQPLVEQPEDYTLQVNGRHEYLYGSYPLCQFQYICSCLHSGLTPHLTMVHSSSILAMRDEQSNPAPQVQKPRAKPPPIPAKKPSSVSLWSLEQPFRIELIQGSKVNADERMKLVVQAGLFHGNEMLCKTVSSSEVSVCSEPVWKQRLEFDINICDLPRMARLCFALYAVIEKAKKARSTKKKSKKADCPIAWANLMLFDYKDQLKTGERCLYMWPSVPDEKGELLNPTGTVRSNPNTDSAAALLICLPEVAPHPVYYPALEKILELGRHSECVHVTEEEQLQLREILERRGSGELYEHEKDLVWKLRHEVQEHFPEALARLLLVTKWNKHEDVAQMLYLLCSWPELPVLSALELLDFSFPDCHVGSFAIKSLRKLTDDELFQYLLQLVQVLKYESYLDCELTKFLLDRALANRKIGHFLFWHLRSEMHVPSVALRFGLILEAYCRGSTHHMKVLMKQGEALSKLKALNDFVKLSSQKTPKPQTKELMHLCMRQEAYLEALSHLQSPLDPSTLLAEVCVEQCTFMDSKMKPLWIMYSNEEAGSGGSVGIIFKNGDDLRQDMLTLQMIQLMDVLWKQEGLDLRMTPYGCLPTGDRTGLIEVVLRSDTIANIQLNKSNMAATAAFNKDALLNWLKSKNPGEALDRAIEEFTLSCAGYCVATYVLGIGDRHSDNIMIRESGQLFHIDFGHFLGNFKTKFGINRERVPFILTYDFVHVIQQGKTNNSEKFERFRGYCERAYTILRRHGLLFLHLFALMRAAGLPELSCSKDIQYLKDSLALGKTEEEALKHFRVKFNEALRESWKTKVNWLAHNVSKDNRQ
T1 sequence (P27986 whole entry partner): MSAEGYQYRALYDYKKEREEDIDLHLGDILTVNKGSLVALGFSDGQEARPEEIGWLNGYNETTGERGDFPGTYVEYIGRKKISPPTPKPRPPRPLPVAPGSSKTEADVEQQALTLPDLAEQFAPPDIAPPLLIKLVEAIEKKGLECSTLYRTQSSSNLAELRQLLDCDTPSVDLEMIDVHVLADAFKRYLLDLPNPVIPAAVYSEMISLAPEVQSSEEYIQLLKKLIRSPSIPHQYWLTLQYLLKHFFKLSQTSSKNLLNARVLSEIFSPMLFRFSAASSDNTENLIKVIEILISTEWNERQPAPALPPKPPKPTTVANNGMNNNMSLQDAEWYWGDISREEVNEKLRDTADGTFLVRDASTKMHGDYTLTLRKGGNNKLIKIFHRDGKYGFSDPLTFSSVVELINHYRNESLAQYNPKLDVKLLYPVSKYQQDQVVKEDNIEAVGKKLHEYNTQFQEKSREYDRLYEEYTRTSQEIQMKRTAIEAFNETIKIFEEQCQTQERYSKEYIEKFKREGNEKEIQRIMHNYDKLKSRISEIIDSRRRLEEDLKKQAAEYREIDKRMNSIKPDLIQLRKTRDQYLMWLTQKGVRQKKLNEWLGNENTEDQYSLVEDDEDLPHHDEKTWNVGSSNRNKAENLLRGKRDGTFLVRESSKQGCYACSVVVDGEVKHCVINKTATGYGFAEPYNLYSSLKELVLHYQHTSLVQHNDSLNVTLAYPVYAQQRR
The experiment in a line: PI3Kδ inhibition, modified PIK3CD Adapta TR-FRET assay. Type of assay: biochemical. The conditions noted are these: recombinant GST-tagged full length PIK3CD co-expressed with PIK3R1 (p85α); 2 μM ATP, 50 μM PIP2. As to the method:
The activity of compounds as PI3Kδ inhibitors may be determined by a variety of methods, including in vitro and in vivo methods. The following in vitro assay measures a test compound's ability to inhibit PI3Kδ-mediated phosphorylation of PIP2 and ATP.
Recombinant GST-tagged PIK3CD is purchased from Invitrogen (Part Number: PV5274). The protein is full length and co-expressed with untagged PIK3R1, phosphoinositide-3-kinase regulatory subunit 1 (p85α). The protein is stored at −20° C. in 50 mM TRIS (pH 7.5), 150 mM NaCl, 0.5 mM EDTA, 0.02% Triton® X-100, 2 mM DTT, and 50% glycerol.
A modified PIK3CD Adapta® assay (Invitrogen, Carlsbad, Calif.) is used to measure PI3Kδ inhibition of the example compounds. The assay has two phases. In the first phase, kinase reaction components, which include the enzyme (PIK3CD), substrates (PIP2, ATP), test compound (inhibitor), and assay buffer are added to each well, and the reaction is allowed to incubate for a pre-determined period of time. […] In the presence of the inhibitor, the amount of ADP formed by the kinase reaction is reduced, and the resulting intact antibody-tracer interaction maintains a high TR-FRET signal.
The reaction buffer contains 50 mM Hepes (pH 7.5), 3 mM MgCl2, 1 mM EGTA, 100 mM NaCl, 0.03% CHAPS; 2 mM DTT is added fresh prior to each experiment. […] Next, test compounds (2 μL) from a source plate (5% dilution plate) are introduced into the wells. The final DMSO concentration in each assay well is 1%. […] Other wells contain test compounds serially diluted across the plate 11 times for a total of 12 data points. The kinase reactions are carried out at room temperature and are initiated by the addition of 4 μL of solution containing 2 μM ATP and 50 μM PIP2. […] This emission signal is referenced or “ratioed” to the emission from Eu at 620 nm. […] The percent inhibition for a given inhibitor concentration is computed from % conversion for the reaction and for the positive and negative controls.
For orientation: Time-resolved FRET reads energy transfer from a long-lived donor to a nearby acceptor.
As to `CNC(=O)Nc1ccc(-c2ncc3c(n2)N2CCOC[C@H]2C(=O)N3[C@@H](C)c2ccc(C)cc2)cc1` (single isomer, unassigned) [Example 86], the “PI3Kδ Inhibition (pIC50)” value was 8.1.

Turning to `CNC(=O)Nc1ccc(-c2ncc3c(n2)N2CCOC[C@@H]2C(=O)N3[C@@H](C)c2ccc(C)cc2)cc1` (single isomer, unassigned) [Example 87], the “PI3Kδ Inhibition (pIC50)” value came out at 7.1.

The same assay, now with this note: recombinant GST-tagged full length PIK3CD co-expressed with PIK3R1 (p85α); 2 μM ATP, 50 μM PIP2; read-out: PI3Kδ Inhibition (pIC50) (converted).
Consider `C[C@@H](c1ccccc1)N1C(=O)C2COCCN2c2nc(-c3cc[nH]n3)ncc21` (mixture of isomers) [Example 97, 5-((5)-1-phenylethyl)-2-(1H-pyrazol-3-yl)-6a,7,9,10-tetrahydro-[1,4]oxazino[3,4-h]pteridin-6(5H)-one], for which the IC50 was 1 µM.

Take `C[C@@H](c1ccc(Cl)cc1)N1C(=O)C2COCCN2c2nc(-c3cnc(N)nc3)ncc21` (mixture of isomers) [Example 162]: the IC50 was 0.00631 µM.

Turning to `C[C@@H](c1ccc(Cl)cc1)N1C(=O)C2COCCN2c2nc(-c3cccc4[nH]ccc34)ncc21` (mixture of isomers) [Example 163, 5-((S)-1-(4-chlorophenyl)ethyl)-2-(1H-indol-4-yl)-6a,7,9,10-tetrahydro-[1,4]oxazino[3,4-h]pteridin-6(5H)-one], the IC50 was 0.0316 µM.

As for `CNC(=O)Nc1ccc(-c2ncc3c(n2)N2CCOCC2C(=O)N3[C@@H](C)c2ccc(Cl)cc2)cc1` (single isomer, unassigned) [Example 85], the IC50 was 0.0126 µM.

For the compound `O=C1Nc2cnc(-c3cccc4[nH]ccc34)nc2N2CCOC[C@H]12` (single isomer, unassigned) [Example 149], the IC50 is 0.2 µM.

With `O=C1Nc2cnc(-c3cccc4[nH]ccc34)nc2N2CCOC[C@@H]12` (single isomer, unassigned) [Example 150], the IC50 was 0.00501 µM.

On to `Cc1ccc([C@H](C)N2C(=O)[C@@H]3COCCN3c3nc(-c4cccc5[nH]ccc45)ncc32)cc1` (single isomer, unassigned) [Example 153], for which the IC50 is 0.0398 µM.

For the compound `CNC(=O)Nc1ccc(-c2ncc3c(n2)N2CCOCC2C(=O)N3[C@@H](C)c2ccc(Cl)cc2)cc1` (single isomer, unassigned) [Example 161], the IC50 is 0.00398 µM.

In the case of `Nc1ncc(-c2ncc3c(n2)N2CCOCC2CN3)cn1` (stereo not shown) [Example 1, 5-(5,6,6a,7,9,10-hexahydro-[1,4]oxazino[3,4-h]pteridin-2-yl)pyrimidin-2-amine], the IC50 is 0.0316 µM.

For the compound `c1cc(-c2ncc3c(n2)N2CCOCC2CN3)c2cc[nH]c2c1` (stereo not shown) [Example 2, 2-(1H-indol-4-yl)-5,6,6a,7,9,10-hexahydro-[1,4]oxazino[3,4-h]pteridine], the IC50 is 0.0501 µM.

As to `c1cc(-c2ncc3c(n2)N2CCOCC2CN3CC2CC2)c2cc[nH]c2c1` (stereo not shown) [Example 3, 5-(cyclopropylmethyl)-2-(1H-indol-4-yl)-5,6,6a,7,9,10-hexahydro-[1,4]oxazino[3,4-h]pteridine], the IC50 was 0.00501 µM.

In the case of `CS(=O)(=O)c1ccc(CN2CC3COCCN3c3nc(-c4cnc(N)nc4)ncc32)cc1` (stereo not shown) [Example 4, 5-(5-(4-(methylsulfonyl)benzyl)-5,6,6a,7,9,10-hexahydro-[1,4]oxazino[3,4-h]pteridin-2-yl)pyrimidin-2-amine], the IC50 is 0.00398 µM.

`CS(=O)(=O)c1ccc(CN2CC3COCCN3c3nc(-c4cccc5[nH]ccc45)ncc32)c(Cl)c1` (stereo not shown) [Example 5, 5-(2-chloro-4-(methylsulfonyl)benzyl)-2-(1H-indol-4-yl)-5,6,6a,7,9,10-hexahydro-[1,4]oxazino[3,4-h]pteridine]: the IC50 is 0.01 µM.

Consider `CNC(=O)Nc1ccc(-c2ncc3c(n2)N2CCOCC2CN3Cc2ccc(S(C)(=O)=O)cc2Cl)cc1` (stereo not shown) [Example 6, 1-(4-(5-(2-chloro-4-(methylsulfonyl)benzyl)-5,6,6a,7,9,10-hexahydro-[1,4]oxazino[3,4-h]pteridin-2-yl)phenyl)-3-methylurea], for which the IC50 is 0.01 µM.

Turning to `CS(=O)(=O)c1ccc(CN2CC3COCCN3c3nc(-c4cnc(N)nc4)ncc32)c(Cl)c1` (stereo not shown) [Example 7, 5-(5-(2-chloro-4-(methylsulfonyl)benzyl)-5,6,6a,7,9,10-hexahydro-[1,4]oxazin[3,4-h]pteridin-2-yl)pyrimidin-2-amine], the IC50 was 0.00794 µM.

Consider `COc1ccc2c(-c3ncc4c(n3)N3CCOCC3CN4)c[nH]c2c1` (stereo not shown) [Example 8, 2-(6-methoxy-1H-indol-3-yl)-5,6,6a,7,9,10-hexahydro-[1,4]oxazino[3,4-h]pteridine], for which the IC50 was above 10 µM.

Take `COc1cccc2c(-c3ncc4c(n3)N3CCOCC3CN4)c[nH]c12` (stereo not shown) [Example 9, 2-(7-methoxy-1H-indol-3-yl)-5,6,6a,7,9,10-hexahydro-[1,4]oxazino[3,4-h]pteridine]: the IC50 was above 10 µM.

Consider `c1cc(-c2ncc3c(n2)N2CCOCC2CN3)c2nc[nH]c2c1` (stereo not shown) [Example 10, 2-(1H-benzo[d]imidazol-4-yl)-5,6,6a,7,9,10-hexahydro-[1,4]oxazino[3,4-h]pteridine], for which the IC50 is 3.16 µM.

As for `Clc1cccc2c(-c3ncc4c(n3)N3CCOCC3CN4)c[nH]c12` (stereo not shown) [Example 11, 2-(7-chloro-1H-indol-3-yl)-5,6,6a,7,9,10-hexahydro-[1,4]oxazino[3,4-h]pteridine], the IC50 is above 10 µM.

In the case of `Oc1cc2c(-c3ncc4c(n3)N3CCOCC3CN4)cccc2[nH]1` (stereo not shown) [Example 12, 4-(5,6,6a,7,9,10-hexahydro-[1,4]oxazino[3,4-h]pteridin-2-yl)-1H-indol-2-ol], the IC50 is 7.94 µM.

In the case of `CC(C)(O)c1ccc(CN2CC3COCCN3c3nc(-c4cccc5[nH]ccc45)ncc32)cc1` (stereo not shown) [Example 13, 2-(4-((2-(1H-indol-4-yl)-6a,7,9,10-tetrahydro-[1,4]oxazino[3,4-h]pteridin-5(6H)-yl)methyl)phenyl)propan-2-ol], the IC50 is 0.0158 µM.

Consider `COc1cc(-c2ncc3c(n2)N2CCOCC2CN3)ccn1` (stereo not shown) [Example 14, 2-(2-methoxypyridin-4-yl)-5,6,6a,7,9,10-hexahydro-[1,4]oxazino[3,4-h]pteridine], for which the IC50 was 5.01 µM.

As to `c1cc(-c2ncc3c(n2)N2CCOCC2CN3)c2cc[nH]c2n1` (stereo not shown) [Example 15, 2-(1H-pyrrolo[2,3-b]pyridin-4-yl)-5,6,6a,7,9,10-hexahydro-[1,4]oxazino[3,4-h]pteridine], the IC50 is 0.398 µM.

With `Cc1c[nH]c2c(F)ccc(-c3ncc4c(n3)N3CCOCC3CN4Cc3ccc(S(C)(=O)=O)cc3)c12` (stereo not shown) [Example 16, 2-(7-fluoro-3-methyl-1H-indol-4-yl)-5-(4-(methylsulfonyl)benzyl)-5,6,6a,7,9,10-hexahydro-[1,4]oxazino[3,4-h]pteridine], the IC50 is 6.31 µM.

On to `CS(=O)(=O)c1ccc(CN2CC3COCCN3c3nc(-c4ccc(F)c5[nH]ccc45)ncc32)cc1` (stereo not shown) [Example 17, 2-(7-fluoro-1H-indol-4-yl)-5-(4-(methylsulfonyl)benzyl)-5,6,6a,7,9,10-hexahydro-[1,4]oxazino[3,4-h]pteridine], for which the IC50 is 0.0398 µM.

Consider `Cc1ccc(S(=O)(=O)N2CC3COCCN3c3nc(-c4cccc5[nH]ccc45)ncc32)cc1` (stereo not shown) [Example 18, 2-(1H-indol-4-yl)-5-tosyl-5,6,6a,7,9,10-hexahydro-[1,4]oxazino[3,4-h]pteridine], for which the IC50 was 0.398 µM.

The values are drawn from patent US8791107B2, “N-substituted oxazinopteridines and oxazinopteridinones” (Takeda Pharmaceutical Company Limited, priority 2011, dated 2014).
